Several values for one entry are separate records, joined by “and”; a condition that tells them apart may be missing. Identical values can stand only once. Like-named read-outs stand apart in the source and are kept apart here. Blank lines part the entries; values can stand above or below the compound they belong to.
Molecular target: CT-L activity of purified 20S proteasome (Homo sapiens, UniProt P20618+P28074)
Test: in vitro CT-L activity of purified 20S proteasome
Format: biochemical
Settings: for Chymotrypsin-like activity, % @ 10 μM: Table 2, @ 10 μM; for fold improved CT-L activity: compared to the hit 1 (PI-1833); for fold difference of CT-L potency between S- and R-enantiomer: 16c vs 16b, 16e vs 16f
[1] = Table 5, read-out: IC50 (μM) Chymotrypsin-like
[2] = Table 5, @ 10 μM, read-out: Screening Results (% Inhibition @ 10 μM) Chymotrypsin-like
[3] = Table 10, read-out: IC50 (μM) CT-L
[4] = Table 1, read-out: IC50 (μM) Chymotrypsin-like activity
[5] = Table 9, read-out: IC50 (μM) Chymotrypsin-like
[6] = read-out: % inhibition of CT-L @ 10 μM, @ 10 μM
[7] = Table 3, read-out: IC50 (μM) CT-L

IC50 [1]: 3.75 ± 1.47 µM
Compound: Cc1ccc(OCC(=O)N(Cc2nc(-c3ccccn3)no2)C(C)C)cc1 [drawing 138]

inhibition at 10 µM [2]: -53 ± 23.4%
Compound: CC(C)N(Cc1nc(-c2ccccc2)no1)C(=O)CCl

IC50 (Table 2, read-out: IC50 (μM) Chymotrypsin-like activity): 8.98 ± 5.21 µM | fold loss of CT-L activity (compared to 1): 14 fold | IC50 (read-out: IC50, in vitro CT-L): 8.8 µM
Compound: CCN(Cc1nc(-c2ccc(C)cc2)no1)C(=O)COc1ccc(C)cc1 [12b, N-Ethyl-N-((3-p-tolyl-1,2,4-oxadiazol-5-yl)methyl)-2-(p-tolyloxy)acetamide]

IC50 [1]: 0.105 ± 0.031 µM
Compound: CCCc1ccc(OCC(=O)N(Cc2nc(-c3cnccn3)no2)C(C)C)cc1 [drawing 167]

IC50 [1]: 29.9 ± 3.9 µM
Compound: Cc1ccc(OCC(=O)N(C)Cc2nc(-c3ccc(C)cc3)no2)cc1 [drawing 122]

Chymotrypsin-like activity, % @ 10 μM: −62% @10 μM.
Compound: Cc1ccc(OCC(=O)NCc2nc(-c3ccc(C)cc3)no2)cc1 [12d, N-((3-p-tolyl-1,2,4-oxadiazol-5-yl)methyl)-2-(p-tolyloxy)acetamide]

IC50 [1]: 4.12 ± 0.09 µM
Compound: Cc1ccc(-c2noc(CN(C(=O)COc3ccc(C(C)C)cc3)C(C)C)n2)cc1

fold improved CT-L activity: 2.5 fold | IC50 (read-out: IC50, in vitro CT-L): 0.239 ± 0.09 µM
Compound: Cc1ccc(OCC(=O)N(Cc2nc(-c3cccnc3)no2)C(C)C)cc1 [11x, N-isopropyl-N-((3-(pyridin-3-yl)-1,2,4-oxadiazol-5-yl)methyl)-2-(p-tolyloxy)acetamide]

IC50 [1]: 15.1 ± 6.94 µM
Compound: CC(C)N(Cc1nc(-c2ccc(C(F)(F)F)cc2)no1)C(=O)COc1ccccc1 [drawing 126]

IC50 [3]: 15.7 µM | IC50 (read-out: IC50, in vitro CT-L): 15 µM
Compound: CC(C)N(Cc1nc(-c2ccccc2)no1)C(=O)CCc1ccc(C(F)(F)F)cc1 [SO2-027, N-Isopropyl-N-((3-phenyl-1,2,4-oxadiazol-5-yl)methyl)-3-(4-(trifluoromethyl)phenyl)propanamide]

IC50 [1]: 0.379 ± 0.063 µM
Compound: CC(C)N(Cc1nc(-c2cccnc2)no1)C(=O)c1cc2ccccc2o1 [drawing 160]

IC50 [4]: 10.1 ± 4.52 µM | IC50 (read-out: IC50, in vitro CT-L): 10 µM
Compound: CC(C)N(Cc1nc(-c2ccccc2)no1)C(=O)COc1ccc(O)cc1 [11v, 2-(4-hydroxyphenoxy)-N-isopropyl-N-((3-phenyl-1,2,4-oxadiazol-5-yl)methyl)acetamide]

IC50 [1]: 6.22 ± 1.11 µM
Compound: CC(C)N(Cc1nc(-c2ccccc2)no1)C(=O)COc1ccccc1 [drawing 127]

inhibition at 10 µM [2]: -8.75 ± 17.4%
Compound: Cc1ccc(CNC(=O)N(Cc2nc(-c3ccccc3)no2)C(C)C)cc1 [drawing 129]

IC50 [4]: 0.43 ± 0.12 µM | IC50 (read-out: IC50, in vitro CT-L): 0.3 to 0.5 µM
Compound: CC(C)N(Cc1nc(-c2ccccc2)no1)C(=O)COc1ccc(C(F)(F)F)cc1 [11b, N-Isopropyl-N-((3-phenyl-1,2,4-oxadiazol-5-yl)methyl)-2-(4-(trifluoromethyl)phenoxy)acetamide]

IC50 [5]: 29.9 µM
Compound: Cc1ccc(OCC(=O)N(C)Cc2nc(-c3ccc(C)cc3)no2)cc1 [drawing 186]

IC50 [4]: > 10 µM | inhibition at 10 µM [6]: < 70%
Compound: CC(C)N(Cc1nc(-c2ccccc2)no1)C(=O)COc1ccc2cc(Br)ccc2c1 [11r, 2-(6-Bromonaphthalen-2-yloxy)-N-isopropyl-N-((3-phenyl-1,2,4-oxadiazol-5-yl)methyl)acetamide]

IC50 [4]: 3.75 ± 1.47 µM | IC50 (read-out: IC50, in vitro CT-L): 3.74 ± 1.47 µM
Compound: Cc1ccc(OCC(=O)N(Cc2nc(-c3ccccn3)no2)C(C)C)cc1 [11w, N-Isopropyl-N-((3-(pyridin-2-yl)-1,2,4-oxadizaol-5-yl)methyl)-2-(p-tolyloxy)acetamide]

IC50 [1]: 0.14 ± 0.003 µM
Compound: Cc1ccc(OCC(=O)N(Cc2coc(-c3ccccc3)n2)C(C)C)cc1

IC50 [1]: 65.9 ± 33.7 µM
Compound: CC(C)N(Cc1nc(-c2cccnc2)no1)C(=O)COc1ccc(C(C)(C)C)cc1 [drawing 170]

IC50 [4]: > 10 µM | inhibition at 10 µM [6]: < 70%
Compound: CC(C)N(Cc1nc(-c2ccccc2)no1)C(=O)COc1ccc(-c2ccccc2)cc1 [11q, 2-(Biphenyl-4-yloxy)-N-isopropyl-N-((3-phenyl-1,2,4-oxadiazol-5-yl)methyl)acetamide]

IC50 [1]: 0.214 ± 0.053 µM
Compound: Cc1ccc(O[C@@H](C)C(=O)N(Cc2nc(-c3cccnc3)no2)C(C)C)cc1 [drawing 162]

IC50 [4]: 0.267 ± 0.05 µM | fold improved CT-L activity: 2 fold | IC50 (read-out: IC50, in vitro CT-L): 0.26 ± 0.05 µM
Compound: CCc1ccc(OCC(=O)N(Cc2nc(-c3ccccc3)no2)C(C)C)cc1 [11aa, 2-(4-Ethylphenoxy)-N-isopropyl-N-((3-phenyl-1,2,4-oxadiazol-5-yl)methyl)acetamide]

IC50 [1]: 0.032 ± 0.003 µM
Compound: CCCc1ccc(OCC(=O)N(Cc2nc(-c3cncnc3)no2)C(C)C)cc1 [drawing 168]

IC50 (read-out: IC50, in vitro CT-L): 3.12 ± 1.11 µM
Compound: CC(C)N(Cc1nc(-c2cccnc2)no1)C(=O)COc1ccccc1 [11ac, N-Isopropyl-2-phenoxy-N-((3-(pyridine-3-yl)-1,2,4-oxadiazol-5-yl)methyl)acetamide]

CT-L inhibitory activity, in words: loss of in vitro activity | IC50 [4]: > 10 µM
Compound: Cc1cccc(OCC(=O)N(Cc2nc(-c3ccccc3)no2)C(C)C)c1 [11o, N-isopropyl-N-((3-phenyl-1,2,4-oxadiazol-5-yl)methyl)-2-(m-tolyloxy)acetamide]

inhibition at 10 µM [6]: 31%
Compound: Cc1ccc(OCC(=O)N(CCc2nc(-c3ccccc3)no2)C(C)C)cc1 [SO2-091, N-Isopropyl-N-(2-(3-phenyl-1,2,4-oxadiazol-5-yl)ethyl)-2-(p-tolyloxy)acetamide]

IC50 [4]: > 10 µM
Compound: CC(C)N(Cc1nc(-c2ccccc2)no1)C(=O)COc1ccc(C(=O)OC(C)(C)C)cc1 [11aq, tert-Butyl 4-(2-(isopropyl((3-phenyl-1,2,4-oxadiazol-5-yl)methyl)amino)-2-oxoethoxy)benzoate]

CT-L inhibitory activity, in words: failed to improve the CT-L activity | IC50 [4]: 0.14 ± 0.052 µM
Compound: CC(C)Cc1ccc(OCC(=O)N(Cc2nc(-c3cccnc3)no2)C(C)C)cc1 [11ak, N-Isopropyl-2-(4-isobutylphenoxy)-N-((3-(pyridin-3-yl)-1,2,4-oxadiazol-5-yl)methyl)acetamide]

IC50 [1]: 5.13 ± 0.09 µM
Compound: CC(C)c1ccc(OCC(=O)N(Cc2nc(-c3ccc(Cl)cc3)no2)C(C)C)cc1

inhibition at 10 µM [2]: 95.72 ± 0.88% | IC50 [1]: 0.37 ± 0.046 µM
Compound: Cc1ccc(OCC(=O)N(Cc2nc(-c3ccncc3)no2)C(C)C)cc1 [drawing 147]

IC50 (Table 4, read-out: IC50 (μM) Chymotrypsin-like activity): 0.45 ± 0.18 µM
Compound: N-Isopropyl-N-((2-phenyloxazol-4-yl)methyl)-2-(p-tolyloxy)acetamide [SO3-023]

IC50 [1]: 8.47 ± 0.59 µM
Compound: Cc1ccc(-c2noc(CN(C(=O)COc3ccccc3)C(C)C)n2)cc1 [drawing 124]

IC50 [7]: 0.38 ± 0.099 µM | IC50 (read-out: IC50, in vitro CT-L): 0.318 µM
Compound: Cc1ccc(OC(C)C(=O)N(Cc2nc(-c3cccnc3)no2)C(C)C)cc1 (racemic) [16a]

IC50 [4]: 0.121 ± 0.04 µM | fold loss of CT-L activity (compared to 11ad or 11ae): 4 fold
Compound: CCCCCc1ccc(OCC(=O)N(Cc2nc(-c3cccnc3)no2)C(C)C)cc1 [11af]

CT-L inhibitory activity, in words: poor CT-L inhibitory activity | IC50 [4]: 8.73 ± 3.05 µM | fold loss of CT-L inhibitory activity (compared to 11b): 20 fold
Compound: CC(C)N(Cc1nc(-c2ccccc2)no1)C(=O)COc1ccc(F)cc1 [11s, 2-(4-Fluorophenoxy)-N-isopropyl-N-((3-phenyl-1,2,4-oxadiazol-5-yl)methyl)acetamide]

IC50 [4]: 0.51 ± 0.16 µM | IC50 (read-out: IC50, in vitro CT-L): 0.3 to 0.5 µM
Compound: CC(C)N(Cc1nc(-c2ccccc2)no1)C(=O)COc1ccc(Cl)cc1 [11h, 2-(4-Chlorophenoxy)-N-isopropyl-N-((3-phenyl-1,2,4-oxadiazol-5-yl)methyl)acetamide]

IC50 [5]: 2.37 ± 0.4 µM
Compound: Cc1ccc(OCC(=O)N(Cc2nc(-c3ccc(C)cc3)no2)CC(C)C)cc1 [drawing 187]

fold difference of CT-L potency between S- and R-enantiomer: 35 fold | IC50 [7]: 7.52 ± 2.13 µM
Compound: Cc1ccc(O[C@H](C)C(=O)N(Cc2nc(-c3cccnc3)no2)C(C)C)cc1 [16c, (R)—N-Isopropyl-N-((3-(pyridine-3-yl)-1,2,4-oxadiazol-5-yl)methyl)-2-(p-tolyloxy)propanamide]

IC50 [4]: 8.47 ± 0.59 µM | fold loss of CT-L activity (compared to 1): 13 fold | IC50 (read-out: IC50, in vitro CT-L): 8.4 µM
Compound: Cc1ccc(-c2noc(CN(C(=O)COc3ccccc3)C(C)C)n2)cc1 [11k, N-Isopropyl-2-phenoxy-N-((3-p-tolyl-1,2,4-oxadiazol-5-yl)methyl)acetamide]

fold improved CT-L activity: 20 fold | IC50 (read-out: IC50, in vitro CT-L): 0.039 µM
Compound: CCCCc1ccc(OCC(=O)N(Cc2nc(-c3cccnc3)no2)C(C)C)cc1 [11ae, 2-(4-Butylphenoxy)-N-isopropyl-N-((3-(pyridine-3-yl)-1,2,4-oxadiazol-5-yl)methyl)acetamide]

IC50 [3]: 0.379 ± 0.063 µM
Compound: CC(C)N(Cc1nc(-c2cccnc2)no1)C(=O)c1cc2ccccc2o1 [SO3-029]

CT-L inhibitory activity, in words: loss of CT-L activity
Compound: Cc1ccc(CNC(=O)N(Cc2nc(-c3ccccc3)no2)C(C)C)cc1 [compound 43]

fold difference of CT-L potency between S- and R-enantiomer: 40 fold | IC50 [7]: 0.075 µM
Compound: CCCc1ccc(O[C@@H](C)C(=O)N(Cc2nc(-c3cccnc3)no2)C(C)C)cc1 [16e, (S)—N-Isopropyl-2-(4-propylphenoxy)-N-((3-(pyridine-3-yl)-1,2,4-oxadiazol-5-yl)methyl)propanamide]

Chymotrypsin-like activity, % @ 10 μM: −8.36 ± 19.03%
Compound: Cc1ccc(OCC(=O)N(Cc2nc(-c3ccc(C)cc3)no2)C2CC2)cc1 [12f, N-Cyclopropyl-N-((3-p-tolyl-1,2,4-oxadiazol-5-yl)methyl)-2-(p-tolyloxy)acetamide]

Screening Results (% Inhibition @ 10 μM) Chymotrypsin-like (Table 5, @ 10 μM, 10 µM): 74% and 67% and 71% | inhibition at 10 µM [2]: 73% | IC50 [1]: 0.65 ± 0.38 µM
Compound: Cc1ccc(OCC(=O)N(Cc2nc(-c3ccc(C)cc3)no2)C(C)C)cc1 [drawing 108]

IC50 [4]: 0.107 ± 0.013 µM | fold loss of CT-L activity (compared to 11ad or 11ae): 3 fold
Compound: CCCCc1ccc(OCC(=O)N(Cc2nc(-c3cnccn3)no2)C(C)C)cc1 [11an]

IC50 [1]: 0.428 ± 0.038 µM
Compound: CCCCCCc1ccc(OCC(=O)N(Cc2nc(-c3cccnc3)no2)C(C)C)cc1 [drawing 165]

IC50 [1]: 3.12 ± 1.11 µM
Compound: CC(C)N(Cc1nc(-c2cccnc2)no1)C(=O)COc1ccccc1 [drawing 161]

IC50 [1]: 0.267 ± 0.05 µM
Compound: CCc1ccc(OCC(=O)N(Cc2nc(-c3ccccc3)no2)C(C)C)cc1 [drawing 134]

IC50 [1]: 0.51 ± 0.16 µM
Compound: CC(C)N(Cc1nc(-c2ccccc2)no1)C(=O)COc1ccc(Cl)cc1 [drawing 121]

Reference: US9878999B2, “Proteasome chymotrypsin-like inhibition using PI-1833 analogs” (H. Lee Moffitt Cancer Center and Research Institute, Inc., priority 2011, dated 2018)
